Measurements as given in patent US6180844A, “Composition containing fluorescence-generating substrate” (Aisin Seiki Kabushiki Kaisha, priority 1998, dated 2001).

System: human chromosome
Test: In-situ hybridization of a human chromosome: fluorescence-generating substrate reacted with probe-bonded peroxidase and hydrogen peroxide, observed by fluorescence microscope
Parameters: key to Intensity of Fluorescence / Binding: +++: Very strong.; ++: Strong.; +: Weak.; ±: Very weak.; -: Not detected
Conditions: for Binding: binding of the substrate to the chromosome, same reaction conditions; for Intensity of Fluorescence: human chromosome sample from peripheral blood lymphocytes, substrate in 0.01% hydrogen peroxide, room temperature 30 minutes, fluorescence microscope; for fluorescent signals observed: summary of Table 1
From the text: A human chromosome sample was hybridized with a digoxigenin-labeled, full-length human DNA probe, to which was bonded a peroxidase-labeled anti-digoxigenin antibody. This was reacted with any of fluorescence-generating substrates of the invention (Compounds 1 to 11) or with a comparative substrate of a commercially available, water-soluble fluorescent substrate, 3-(4-hydroxyphenyl)propionic acid (HPPA). […] The full-length human DNA probe hybridizes entirely with the human chromosome. Therefore, if the fluorescence-generating substrates tested herein are reacted in a reaction system comprising peroxidase and hydrogen peroxide, the entire chromosome in the system shall be seen to emit fluorescence in the fluorescence-microscopic observation.
The procedure is as follows:
Human chromosome samples were prepared from cultured human peripheral blood lymphocytes. Full-length human DNA was labeled with digoxigenin through nick translation, collected through ethanol precipitation, and dissolved in formamide to prepare a digoxigenin-labeled, full-length human DNA probe. Each human chromosome sample was immersed in a denaturing solution kept heated at 70° C., for 2 minutes, and then rapidly cooled by putting it into 70% ethanol cooled to 4° C., whereby the double-stranded DNA of the sample was kept dissociated in a single-stranded condition. The probe was kept in a water bath at 75° C. for 10 minutes, and then rapidly cooled in ice water with 5 minutes, whereby the double-stranded DNA of the probe was kept dissociated in a single-stranded condition. This probe was mixed with a hybridization solution, put on the human chromosome sample, and reacted with it overnight at 37° C. (in-situ hybridization).
After having been hybridized, the system was washed with a solution of 50% formamide/2×SSC at 37° C. for 15 minutes, then with 2×SSC at room temperature for 15 minutes, and then with 4×SSC at room temperature for 5 minutes, thereby removing the excess, non-hybridized probe therefrom. Next, a pcroxidase-labeled anti-digoxigenin antibody was diluted with a 1% blocking solution into a 1/100 dilution, and the resulting enzyme-labeled antibody dilution was put on the sample, and maintained at 37° C. for 1 hour. The excess enzyme antibody not bonded to the probe was removed by washing the system with a washing solution containing a surfactant. Any of the fluorescence-generating substrates (Compounds 1 to 11) of the invention and a commercially-available, water-soluble fluorescent substrate, HPPA was dissolved in a reactant solution containing 0.01% hydrogen peroxide […], and the resulting fluorescent substrate solution was put on the sample and reacted with it at room temperature for 30 minutes. After reacting in the reaction system comprising the probe-bonded peroxidase and hydrogen peroxide, the fluorescence-generating substrate formed a new compound which was fixed on the chromosome and emitted fluorescence, which was observed using a fluorescence microscopic.
The full-length human DNA probe hybridizes with the entire chromosome, with the result that the entire chromosome was stained with the fluorescence-generating substrate. Sample were processed with any of the fluorescent substrates (Compounds 1 to 11) as well as the commercially-available, water-soluble fluorescent substrate, […]. […] In addition, the binding of the substrate to the chromosome was checked.

Row | SMILES | Binding | Intensity of Fluorescence | binding of the enzymatic reaction product to the chromosome (product after the enzymatic reaction) | fluorescent signals observed
1 | O=C(O)CCc1ccc(O)cc1 [HPPA, 3-(4-hydroxyphenyl)propionic acid, reference compound] | + | ± | soluble in water or could not bind to the chromosome | few fluorescent signals were detected
2 | Cc1cc(O)ccc1NC(=O)c1ccccc1C [Compound 9] | ++ | ++ | – | –
3 | Cc1cc(C)c(C(=O)Nc2ccc(O)cc2C)c(C)c1 [Compound 10, 4-hydroxy-2-methylphenyl-2,4,6-trimethylbenzamide] | ++ | ++ | – | –
4 | O=C(O)CCCCCNC(=O)CCc1ccc(O)cc1 [Compound 11, 6-{3-(4-hydroxyphenyl)propionamido}hexanoic acid] | +++ | +++ | – | high-intensity fluorescent signals were observed
